Results taken from PubChem BioAssay AID588548 (Broad Institute, 2011).

target: Scavenger receptor class B member 1 (Mus musculus) (UniProt Q61009); assay: SR-BI-mediated DiI-HDL uptake inhibitors, dose response, ldlA[mSR-BI] CHO cells, powder samples, set 4 (AID 588548); conditions: DiI-HDL uptake fluorescence, 3 h
Sequence (Q61009 whole entry, looked up): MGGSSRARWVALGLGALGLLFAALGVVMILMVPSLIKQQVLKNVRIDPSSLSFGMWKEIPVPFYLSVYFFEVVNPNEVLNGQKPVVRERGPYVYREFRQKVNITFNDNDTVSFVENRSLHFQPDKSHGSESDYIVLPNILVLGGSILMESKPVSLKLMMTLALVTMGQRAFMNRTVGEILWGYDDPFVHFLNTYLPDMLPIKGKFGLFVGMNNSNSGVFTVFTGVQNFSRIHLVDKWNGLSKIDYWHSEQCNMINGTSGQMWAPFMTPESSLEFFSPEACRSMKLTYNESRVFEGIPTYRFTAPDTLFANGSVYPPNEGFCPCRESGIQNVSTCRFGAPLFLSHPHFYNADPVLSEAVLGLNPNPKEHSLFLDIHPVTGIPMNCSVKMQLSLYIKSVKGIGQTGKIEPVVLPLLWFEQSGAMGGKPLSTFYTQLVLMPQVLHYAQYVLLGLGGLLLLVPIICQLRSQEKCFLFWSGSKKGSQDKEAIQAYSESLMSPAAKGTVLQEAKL

AC50, active:
CCC(=O)N1CCc2cc(-c3csc(NC(=O)c4cc5cccnc5o4)n3)ccc21 45.3 nM, CCC(=O)N1CCc2cc(-c3csc(NC(=O)c4cccc(OC(F)(F)F)c4)n3)ccc21 18.5 nM, CCC(=O)Nc1ccc(-c2csc(NC(=O)c3ccco3)n2)cc1 1920 nM, CCC(=O)N1CCc2cc(-c3csc(NC(=O)c4ccco4)n3)ccc21 28.6 nM, O=C(CN(C(=O)Cn1nnc(-c2ccc3c(c2)OCO3)n1)C1CCCCC1)NC1CCCC1 < 15 nM, COc1cc(OC)cc(C(=O)Nc2nc(-c3ccc4c(c3)CCN4C(=O)OC(C)(C)C)cs2)c1 < 15 nM, COCC(=O)N1CCc2cc(-c3csc(NC(=O)c4cc(OC)cc(OC)c4)n3)ccc21 < 15 nM, CCC(=O)Nc1ccc(-c2csc(NC(=O)c3cccc(OC)c3)n2)cc1 99.3 nM, O=C(CN(C(=O)Cn1nnc(-c2ccc(Cl)c(Cl)c2)n1)C1CCCCC1)NC1CCCC1 302 nM, COc1ccc(-c2nnn(CC(=O)N(CC(=O)NC3CCCC3)C3CCCCC3)n2)cc1OC < 15 nM, COc1cc(OC)cc(C(=O)Nc2nc(-c3ccc4c(c3)CCN4)cs2)c1 103 nM, CC(C)(C)OC(=O)N1CCc2cc(-c3noc(NC(=O)c4ccco4)n3)ccc21 14600 nM, CCC(=O)N1CCc2cc(-c3csc(/N=C(/OC)c4cc(OC)cc(OC)c4)n3)ccc21 1020 nM, CCNC(=O)N1CCc2cc(-c3csc(NC(=O)c4cc(OC)cc(OC)c4)n3)ccc21 < 15 nM, COc1ccc(-c2cc(CC(=O)N(C3CCCCC3)C(C)C(=O)NC3CCCC3)no2)cc1OC (configuration not stated) 28.5 nM, CCCN1CCc2cc(-c3csc(NC(=O)c4cc(OC)cc(OC)c4)n3)ccc21 51.7 nM, COc1cc(OC)cc(C(=O)Nc2nc(-c3ccc4c(c3)CCN4C(C)=O)cs2)c1 24.9 nM, CCC(=O)N1CCc2cc(-c3csc(NC(=O)c4cc(OC)cc(OC)c4)n3)ccc21 29.5 nM, CCCCCCC1CCC/C1=N\NC(N)=S (configuration not stated) < 15 nM, CC(C(=O)NC1CCCC1)N(C(=O)Cn1nnc(-c2ccc3c(c2)OCO3)n1)C1CCCCC1 (configuration not stated) < 15 nM, CC(C(=O)NC1CCCC1)N(C(=O)Cn1nnc(-c2ccc(Cl)c(Cl)c2)n1)C1CCCCC1 (configuration not stated) 250 nM, CC(C(=O)NC1CCCC1)N(C(=O)Cn1nnc(-c2ccc3c(c2)OCO3)n1)C1CCOCC1 (configuration not stated) 3180 nM, O=C(CN(C(=O)Cn1nnc(-c2ccc3c(c2)OC(F)(F)O3)n1)C1CCCCC1)NC1CCCC1 26 nM, COc1cc(OC)cc(C(=O)Nc2nc(-c3ccc4c(c3)CCN4C(=O)CN(C)C)cs2)c1 < 15 nM, CCC(=O)Nc1ccc(-c2csc(N)n2)cc1 8840 nM, CC(C(=O)NC1CCCC1)N(C(=O)Cn1nnc(-c2ccc3c(c2)OC(F)(F)O3)n1)C1CCCCC1 (configuration not stated) 63.5 nM, O=C(Nc1nc(-c2ccc3c(c2)CCN3)cs1)c1ccco1 < 15 nM, COc1ccc(-c2nc(CC(=O)N(C3CCCCC3)C(C)C(=O)NC3CCCC3)cs2)cc1OC (configuration not stated) 5260 nM, CCC(=O)N1CCc2cc(-c3csc(NC(=O)c4cc(OC)c(OC)c(OC)c4)n3)ccc21 < 15 nM, COC(=O)N1CCc2cc(-c3csc(NC(=O)c4cc(OC)cc(OC)c4)n3)ccc21 72 nM, COc1cc(OC)cc(C(=O)Nc2nc(-c3ccc4[nH]ccc4c3)cs2)c1 50.5 nM, CCC(=O)N1CCc2cc(-c3csc(N(C)C(=O)c4cc(OC)cc(OC)c4)n3)ccc21 50 nM
